Assay results as given in PubChem BioAssay AID248 (DTP/NCI, 2004).
“And” between values parts separate entries of the source, which are not always exact repeats. Equal entries are not always repeated. Inconclusive results and toxic doses are left out. Cut-off read from the data, not from the text of the source: active = T/C of 150% or more; inactive = T/C below 125%.

Test system: L1210 leukemia ip in BDF1 mice, survival T/C
Assay: NCI In Vivo Anticancer Drug Screen. Data for tumor model L1210 Leukemia (intraperitoneal) in B6D2F1 (BDF1) mice
Conditions: endpoint: mean survival time, higher = longer survival
Outline: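 Survival endpoint. Drug-treated group vs vehicle group, expressed as T divided by C. Tumor passaged by transplantation.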

[1] = dose: 100.0 mg/kg/injection, schedule: Q04DX002 (ip), vehicle: Klucel (hydroxypropylcellulose) (HPC)
[2] = dose: 200.0 mg/kg/injection, schedule: Q04DX002 (ip), vehicle: Klucel (hydroxypropylcellulose) (HPC)
[3] = dose: 400.0 mg/kg/injection, schedule: Q04DX002 (ip), vehicle: Klucel (hydroxypropylcellulose) (HPC)
[4] = dose: 25.0 mg/kg/injection, schedule: Q01DX009 (ip), vehicle: saline with Tween-80
[5] = dose: 50.0 mg/kg/injection, schedule: Q01DX009 (ip), vehicle: saline with Tween-80
[6] = dose: 100.0 mg/kg/injection, schedule: Q01DX009 (ip), vehicle: saline with Tween-80
[7] = dose: 100.0 mg/kg/injection, schedule: Q04DX003 (ip), vehicle: saline
[8] = dose: 200.0 mg/kg/injection, schedule: Q04DX003 (ip), vehicle: saline

Measured: T/C

CCOC(=O)CCSC(C)(C)C(=O)OCC
inactive: dose: 100.0 mg/kg/injection, schedule: Q01DX009 (ip), vehicle: Klucel (hydroxypropylcellulose) (HPC) 97 % of control | dose: 200.0 mg/kg/injection, schedule: Q01DX009 (ip), vehicle: Klucel (hydroxypropylcellulose) (HPC) 101 % of control | dose: 400.0 mg/kg/injection, schedule: Q01DX009 (ip), vehicle: Klucel (hydroxypropylcellulose) (HPC) 100 % of control

CSc1nc(Cl)nc(C(Cl)(Cl)Cl)c1Cl
inactive: dose: 100.0 mg/kg/injection, schedule: Q01DX001 (ip), vehicle: Klucel (hydroxypropylcellulose) (HPC) 89 % of control | dose: 200.0 mg/kg/injection, schedule: Q01DX001 (ip), vehicle: Klucel (hydroxypropylcellulose) (HPC) 103 % of control | dose: 400.0 mg/kg/injection, schedule: Q01DX001 (ip), vehicle: Klucel (hydroxypropylcellulose) (HPC) 89 % of control

COC(=O)c1cn2ccc(C(=O)c3ccccc3)cc2c1C(=O)OC
inactive: [1] 95 % of control | [2] 106 % of control | [3] 98 % of control

O=C(Nc1ccccc1Cl)Nc1cc(Cl)ccc1Cl
inactive: dose: 100.0 mg/kg/injection, schedule: Q04DX002 (ip), vehicle: saline + alcohol 100 % of control | dose: 200.0 mg/kg/injection, schedule: Q04DX002 (ip), vehicle: saline + alcohol 100 % of control | dose: 400.0 mg/kg/injection, schedule: Q04DX002 (ip), vehicle: saline + alcohol 92 % of control

Cc1c2ccccc2c(C)c2c1cc(CO)c1ccccc12
inactive: [1] 97 % of control | [2] 104 % of control | [3] 89 % of control

O=C(C[n+]1ccccc1Br)c1cccc([N+](=O)[O-])c1
inactive: dose: 75.0 mg/kg/injection, schedule: Q01DX001 (ip), vehicle: other 100 % of control | dose: 150.0 mg/kg/injection, schedule: Q01DX001 (ip), vehicle: other 108 % of control

CC(=O)NCc1ccc([N+](=O)[O-])cc1
inactive: [4] 100 % of control | [5] 107 % of control | [6] 104 % of control | dose: 200.0 mg/kg/injection, schedule: Q01DX009 (ip), vehicle: saline with Tween-80 111 % of control

Cc1ccc(-n2c(=S)[nH]c3ccccc3c2=O)cc1
inactive: [4] 92 % of control | [5] 90 % of control | [6] 87 % of control

O=C1CC2=C(CC(O)=CC=C2)C(=O)O1
inactive: [7] 104 % of control | [8] 100 % of control | dose: 400.0 mg/kg/injection, schedule: Q04DX003 (ip), vehicle: saline 93 % of control

CNC(=S)N/N=C(\C=N\NC(=S)NC)c1ccccc1
inactive: dose: 50.0 micrograms/kg/injection, schedule: Q01DX009 (ip), vehicle: carboxymethylcellulose (CMC) 88 % of control

NC1Cc2ccccc2C1
inactive: dose: 12.5 mg/kg/injection, schedule: Q01DX009 (ip), vehicle: saline 98 % of control | dose: 25.0 mg/kg/injection, schedule: Q01DX009 (ip), vehicle: saline 110 % of control and 93 % of control | dose: 25.0 mg/kg/injection, schedule: Q04DX003 (ip), vehicle: saline 104 % of control | dose: 50.0 mg/kg/injection, schedule: Q01DX009 (ip), vehicle: saline 92 % of control and 95 % of control | dose: 50.0 mg/kg/injection, schedule: Q04DX003 (ip), vehicle: saline 109 % of control | dose: 100.0 mg/kg/injection, schedule: Q01DX009 (ip), vehicle: saline 106 % of control and 92 % of control | [7] 96 % of control | [8] 92 % of control

Clc1c(CBr)c(Cl)c(CBr)c(Cl)c1CBr
inactive: dose: 25.0 mg/kg/injection, schedule: Q01DX009 (ip), vehicle: Klucel (hydroxypropylcellulose) (HPC) 90 % of control | dose: 50.0 mg/kg/injection, schedule: Q01DX009 (ip), vehicle: Klucel (hydroxypropylcellulose) (HPC) 87 % of control | dose: 100.0 mg/kg/injection, schedule: Q04DX003 (ip), vehicle: Klucel (hydroxypropylcellulose) (HPC) 88 % of control
